Experimental findings from US10808007B2, “Desacetoxytubulysin H and analogs thereof” (WILLIAM MARSH RICE UNIVERSITY, priority 2015, dated 2020) are described below.

Where two headings read alike, the source gives them in different places.

What is called IC50 is the midpoint of a concentration-inhibition curve.

What all share (type): cell-based
Assay [1] has as its system MES SA (uterine sarcoma cells). Description: Cytotoxic assay (CellTiter-Glo, 72 h), MES SA. (In ATP-based viability assays light output follows the ATP content of the culture.)
Assay [2] has as its system HEK 293T (human embryonic kidney cells). Description: Cytotoxic assay (CellTiter-Glo, 72 h), HEK 293T.
The test system of assay [3] is MES SA DX (multidrug resistant uterine sarcoma cells). Description: Cytotoxic assay (CellTiter-Glo, 72 h), MES SA DX. The note with it: Homo sapiens.
[4] abbreviates: Homo sapiens, MES-SA, read-out: MES SA IC50 (nM).
Where [5] appears, read: Homo sapiens, HEK-293T, read-out: HEK 293T IC50 (nM).
Where [6] appears, read: Homo sapiens, MES-SA, 72 h, read-out: IC50 MES SA.
[7] abbreviates: Homo sapiens, HEK-293T, 72 h, read-out: IC50 HEK 293T.

Consider `COC(=O)[C@@H](C)C[C@H](Cc1ccc(F)cc1)NC(=O)c1csc([C@@H](C[C@H](C(C)C)N(C)C(=O)[C@@H](NC(=O)[C@H]2CCCCN2C)C2CC2)OC(C)=O)n1` [Tb-57, Methyl (2S,4R)-4-(2-((1R,3R)-1-acetoxy-3-((S)-2-cyclopropyl-N-methyl-2-((R)-1-methylpiperidine-2-carboxamido)acetamido)-4-methylpentyl)thiazole-4-carboxamido)-5-(4-fluorophenyl)-2-methylpentanoate], for which the IC50 in assay [1] (setting [4]) is around 89.3 nM; in assay [2] (setting [5]), around 105 nM.
Regarding `CCCCN1CCCC[C@@H]1C(=O)N[C@H](C(=O)N(C)[C@H](CCc1nc(C(=O)N[C@@H](Cc2ccccc2)C[C@H](C)C(=O)OC)cs1)C(C)C)C(C)C` [PTb-D51, Methyl(2S,4R)-4-(2-((R)-3-((S)-2-((R)-1-butylpiperidine-2-carboxamido)-N,3-dimethylbutanamido)-4-methylpentyl)thiazole-4-carboxamido)-2-methyl-5-phenylpentanoate], the IC50 in assay [1] (setting [4]) and in assay [2] (setting [5]) was above 100 nM in each case.
With `CC[C@H](C)[C@H](NC(=O)[C@H]1CCCCN1C)C(=O)N[C@H](C[C@@H](OC(C)=O)c1nc(C(=O)N[C@@H](Cc2ccccc2)C[C@H](C)C(=O)OC)cs1)C(C)C` [Tb-53, (2S,4R)-Methyl 4-(2-((1R,3R)-1-acetoxy-4-methyl-3-((2S,3S)-3-methyl-2-((R)-1-methylpiperidine-2-carboxamido)pentanamido)pentyl)thiazole-4-carboxamido)-2-methyl-5-phenyl pentanoate], the IC50 in assay [1] (setting [4]) worked out at 0.92 nM; in assay [2] (setting [5]), 0.56 nM.
On to `COC(=O)[C@@H](C)C[C@H](Cc1ccccc1)NC(=O)c1csc([C@@H](C[C@H](C(C)C)N(C)C(=O)[C@@H](NC(=O)[C@H]2CCCCN2C)c2ccc(F)cc2)OC(C)=O)n1` [Tb29, (2S,4R)-Methyl 4-(2-((1R,3R)-1-acetoxy-3-((S)-2-(4-fluorophenyl)-N-methyl-2-((R)-1-methylpiperidine-2-carboxamido)acetamido)-4-methylpentyl)thiazole-4-carboxamido)-2-methyl-5-phenylpentan oate], for which the IC50 stood at 2.61 nM in assay [1] (setting [6]), 500 nM in assay [3] and 2.24 nM in assay [2] (setting [7]).
For `COC(=O)[C@@H](C)C[C@H](Cc1cn(C)c2ccccc12)NC(=O)c1csc([C@@H](C[C@H](C(C)C)N(C)C(=O)[C@@H](NC(=O)[C@H]2CCCCN2C)C(C)C)OC(C)=O)n1` [Tb41, Methyl(2S,4R)-4-(2-((1R,3R)-1-acetoxy-3-((S)—N,3-dimethyl-2-((R)-1-methylpiperidine-2-carboxamido)butanamido)-4-methylpentyl)thiazole-4-carboxamido)-2-methyl-5-(1-methyl-1H-indol-3-yl)pen-tanoate], the IC50 was above 1000 nM in assay [1] (setting [6]), above 1000 nM in assay [3] and 21.1 nM in assay [2] (setting [7]).
Regarding `COC(=O)[C@H](Cc1ccccc1)NC(=O)c1csc([C@@H](C[C@H](C(C)C)N(C)C(=O)[C@@H](NC(=O)[C@H]2CCCCN2C)C2CC2)OC(C)=O)n1` [Tb24, Methyl(2-((1R,3R)-1-acetoxy-3-((S)-2-cyclopropyl-N-methyl-2-((R)-1-methylpiperidine-2-carboxam-ido)acetamido)-4-methylpentyl)thiazole-4-carbonyl)-L-phenylalaninate], the IC50 in assay [1] (setting [6]) is 13.1 nM; in assay [3], above 100 nM; in assay [2] (setting [7]) it was 9.69 nM.
For `COC(=O)CC12CC(NC(=O)c3csc([C@@H](C[C@H](C(C)C)N(C)C(=O)[C@@H](NC(=O)[C@H]4CCCCN4C)C(C)C)OC(C)=O)n3)(C1)C2` [Tb-56, Methyl 2-(3-(2-((1R,3R)-1-acetoxy-3-((S)—N,3-dimethyl-2-((R)-1-methylpiperidine-2-carboxamido)butanamido)-4-methylpentyl)thiazole-4-carboxamido)bicyclo[1.1.1]pentan-1-yl)], the IC50 in assay [1] (setting [4]) is around 2.73 nM; in assay [2] (setting [5]) it was 1.79 nM.
Regarding `COC(=O)[C@@H](C)C[C@H](Cc1ccccc1)NC(=O)c1csc([C@@H](C[C@H](C(C)C)N(C)C(=O)[C@@H](NC(=O)[C@H]2CCCCN2C)C(C)C)OC(C)=O)n1` [Tb32, (2S,4R)-Methyl 4-(2-((1R,3R)-1-acetoxy-3-((S)—N,3-dimethyl-2-((R)-1-methylpiperidine-2-carboxamido)butanamido)-4-methylpentyl)thiazole-4-carboxamido)-2-methyl-5-phenylpentanoate], the IC50 in assay [1] (setting [6]) is 0.012 nM; in assay [1] (Homo sapiens, MES-SA, read-out: IC50 MES SA), 0.012 nM; in assay [3], 1.29 nM; in assay [2] (setting [7]) it was 0.002 nM; in assay [2] (Homo sapiens, HEK-293T, read-out: IC50 HEK 293T) it was 0.002 nM.
As for `CC[C@H](C)[C@H](NC(=O)[C@H]1CCCCN1C)C(=O)N(C)[C@H](C[C@@H](OC(C)=O)c1nc(C(=O)NC23C4C5C2C2C3C4C52C(=O)OC)cs1)C(C)C` (stereo partly drawn) [Tb1l], the IC50 in assay [1] (MES SA, read-out: IC50 MES SA) stood at 0.84 nM; in assay [2] (HEK 293T, read-out: IC50 HEK 293T), 0.26 nM.
For `CC[C@H](C)[C@H](NC(=O)[C@H]1CCCCN1C)C(=O)N[C@H](C[C@@H](OC(C)=O)c1nc(C(=O)N[C@@H](Cc2ccccc2)C[C@H](C)C(=O)O)cs1)C(C)C` [Tb-54, (2S,4R)-4-(2-((1R,3R)-1-Acetoxy-4-methyl-3-((2S,3S)-3-methyl-2-((R)-1-methylpiperidine-2-carboxamido)pentanamido)pentyl)thiazole-4-carboxamido)-2-methyl-5-phenylpentanoic Acid], the IC50 came to 6.21 nM in assay [1] (Homo sapiens, MES SA, Table 3, read-out: MES SA IC50) and 0.73 nM in assay [2] (Homo sapiens, HEK 293T, Table 3, read-out: HEK 293T IC50).
Regarding `COC(=O)[C@@H](C)C[C@H](Cc1ccccc1)NC(=O)c1csc(CC[C@H](C(C)C)N(C)C(=O)[C@@H](NC(=O)[C@H]2CCCCN2C)C(C)C)n1` [PTb-D50, Methyl(2S,4R)-4-(2-((R)-3-((S)—N,3-dimethyl-2-((R)-1-methylpiperidine-2-carboxamido)butanamido)-4-methylpentyl)thiazole-4-carboxamido)-2-methyl-5-phenylpentanoate], the IC50 in assay [1] (setting [4]) and in assay [2] (setting [5]) was above 100 nM in each case.
With `CCCCN1CCCC[C@@H]1C(=O)N[C@H](C(=O)N(C)[C@H](C[C@@H](OC(C)=O)c1nc(C(=O)N[C@H]2CC[C@H](C(=O)O)CC2)cs1)C(C)C)C(C)C` [Tb-61], the IC50 in assay [1] (setting [4]) and in assay [2] (setting [5]) was above 100 nM each time.
Take `CCCCN1CCCC[C@@H]1C(=O)N[C@H](C(=O)N(C)[C@H](CCc1nc(C(=O)N[C@@H](Cc2ccccc2)C[C@H](C)C(=O)OC)cs1)C(C)C)[C@@H](C)CC` [PTb-D49, Methyl(2S,4R)-4-(2-((R)-3-((2S,3S)-2-((R)-1-butylpiperidine-2-carboxamido)-N,3-dimethylpentanamido)-4-methylpentyl)thiazole-4-carboxamido)-2-methyl-5-phenylpentanoate]: the IC50 in assay [1] (setting [4]) and in assay [2] (setting [5]) was above 100 nM throughout.
For the compound `CC(=O)O[C@H](C[C@H](C(C)C)N(C)C(=O)[C@@H](NC(=O)[C@H]1CCCCN1C)C(C)C)c1nc(C(=O)N[C@H]2CC[C@H](C(=O)O)CC2)cs1` [Tb-59, (1R,4r)-4-(2-((1R,3R)-1-Acetoxy-3-((S)—N,3-dimethyl-2-((R)-1-methylpiperidine-2-carboxamido)butanamido)-4-methylpentyl)thiazole-4-carboxamido)cyclohexane-1-carboxylic Acid], the IC50 in assay [1] (setting [4]) and in assay [2] (setting [5]) was above 100 nM in each case.
Regarding `CCCCN1CCCC[C@@H]1C(=O)N[C@H](C(=O)N(C)[C@H](C[C@@H](OC(C)=O)c1nc(C(=O)N[C@H]2CC[C@H](C(=O)OC)CC2)cs1)C(C)C)C(C)C` [Tb-60, Methyl (1R,4r)-4-(2-((1R,3R)-1-acetoxy-3-((S)-2-((R)-1-butylpiperidine-2-carboxamido)-N,3-dimethylbutanamido)-4-methylpentyl)thiazole-4-carboxamido)cyclohexane-1-carboxylate], the IC50 in assay [1] (setting [4]) and in assay [2] (setting [5]) was above 100 nM each time.
As to `COC(=O)C12CC(NC(=O)c3csc([C@@H](C[C@H](C(C)C)N(C)C(=O)[C@@H](NC(=O)[C@H]4CCCCN4C)C(C)C)OC(C)=O)n3)(C1)C2` [Tb-55, Methyl 3-(2-((1R,3R)-1-acetoxy-3-((S)—N,3-dimethyl-2-((R)-1-methylpiperidine-2-carboxamido)butanamido)-4-methylpentyl)thiazole-4-carboxamido)bicyclo[1.1.1]pentane-1-carboxylate], the IC50 in assay [1] (setting [4]) was found to be 0.93 nM; in assay [2] (setting [5]), 0.35 nM.
The corresponding values for `COC(=O)[C@@H](C)C[C@H](Cc1ccccc1)NC(=O)c1csc([C@@H](C[C@H](C(C)C)N(C)C(=O)C2(NC(=O)[C@H]3CCCCN3C)CCCC2)OC(C)=O)n1` [Tb-52, Methyl (2S,4R)-4-(2-((1R,3R)-1-acetoxy-4-methyl-3-(N-methyl-1-((R)-1-methylpiperidine-2-carboxa-mido)cyclopentane-1-carboxamido)pentyl)thiazole-4-carboxamido)-2-methyl-5-phenylpentanoate] are 7.18 nM and 5.78 nM.
The matching figures for `COC(=O)[C@H]1CC[C@H](NC(=O)c2csc([C@@H](C[C@H](C(C)C)N(C)C(=O)[C@@H](NC(=O)[C@H]3CCCCN3C)C(C)C)OC(C)=O)n2)CC1` [Tb-58, Methyl (1R,4r)-4-(2-((1R,3R)-1-acetoxy-3-((S)—N,3-dimethyl-2-((R)-1-methylpiperidine-2-carboxamido)butanamido)-4-methylpentyl)thiazole-4-carboxamido)cyclohexane-1-carboxylate]: 6.16 nM and 3.83 nM.
